Assays:
Type in all cases: cell-based
Gram-negative bacteria = assay: MIC determination by disk-diffusion method, Gram-negative bacteria
Method: (§1) Tests for antimicrobial activities were carried out using rosin-derived quaternary ammonium 1 and their polymer 4 with a number-average molecular weight of 7.5×105 g/mol. The antimicrobial susceptibilities of several Gram-negative bacteria (e.g. Pseudomonas aeruginosa, Escherichia coli, Enterobacter aerogenes, and Klebsiella pneumonia) and Gram-positive bacteria (Staphylococcus aureus and Bacillus cereus) were determined. These strains were purified at laboratory and maintained at −70° C. in a 1:1 mixture of glycerol and dimethylsulfoxide (DMSO). To conduct the assays, a small volume of actively-growing cultures of each bacterial strain is spread on agar plates, and incubated at 28° C. for 24 h to form a ‘bacterial lawn’ covering the plate surface. Then 6 mm (dia) filter discs are added to the surface, and 30 ul samples (containing each compound at several concentrations dissolved in DMSO) are applied to the disc surfaces, and the plates are incubated.
(§2) Considering the potential applications of antimicrobial compounds and polymers as coatings for food packaging, medical implants and devices, and antifouling surfaces, all subsequent MIC determinations were carried out using the disk-diffusion method.

Gram-positive bacteria = assay: MIC determination by disk-diffusion method, Gram-positive bacteria
Method: as §1, §2

[1] = test system: different bacterial strains; assay: Control experiments with residual copper catalysts and solvents; settings: control for residual catalyst/solvent
Method: To further confirm that the antimicrobial activities were not caused by residual copper catalysts and solvents (i.e. methanol), control experiments were carried out using these reagents against different bacterial strains.

| Compound | antimicrobial activity (control experiments) (Gram-negative bacteria) | antimicrobial activity (control experiments) (Gram-positive bacteria) | toxicity against bacterial strains [1] |
| --- | --- | --- | --- |
| CC[N+](CC)(CC)CC.[Br-] [TEAB, tetraethylammonium bromide] | no activities | no activities |  |
| CO [methanol] |  |  | did not exhibit significant toxicity |
